This note sets out measurements from patent publication US20230364096A1, “USE OF A COMBINATION COMPRISING A BTK INHIBITOR FOR TREATING CANCERS” (BEIGENE SWITZERLAND GMBH, priority 2016, published 2023).

In test [1] the test system is obinutuzumab-induced ADCC (IFN-γ secretion). The test can be described thus: Obinutuzumab-induced ADCC assessed by IFN-γ secretion in co-culture of NK92MI cells and Mino cells. In kind it is cell-based, human. The note with it: various concentrations. As to the method:
Mino cells were cultured in RPMI1640 complete medium supplemented with 10% (v/v) fetal bovine serum, and 100 µg/mLof penicillin and streptomycin. NK92MI/CD16V cell line, overexpressing CD16 and FcRγ chain, was established from parental cell line NK92MI. The cells were maintained in MEM alpha supplemented with 0.2 mM inositol; 0.1 mM 2-mercaptoethanol; 0.02 mM folic acid; 1 ×NEAA; adjust to a final concentration of 20% (v/v) fetal bovine serum and 100 µg/mL of penicillin and streptomycin.
0130] Mino cells (2×10^4cells/well) as the target cells (T) were plated into 96-well plate in triplicates. Cells were treated with vehicle or various concentrations of BTK inhibitors for one hour, followed by co-seeding with NK92MI cells (4×10^4cells/well, as the effector cells (E)) and co-treatment with vehicle or obinutuzumab (2 ug/well) for additional 24 hrs. After incubation, the cell-free supernatants of each well were collected, and the levels of human IFN-γ were measured using Human IFN-γ ELISA Ready-SET-Go kit.

Test [2] has as its system TMD-8 DLBCL xenograft. The test can be described thus: Human TMD-8 DLBCL xenograft model. In kind it is in vivo, mice. The note with it: for Tumor growth inhibition (TGI): day 46, Compound 1 7.5 mg/kg p.o. BID, obinutuzumab 10 mg/kg i.p. QW. As for the experimental part: (§1) TMD-8 DLBCL cells were cultured in RPMI1640 complete medium supplemented with 10% (v/v) fetal bovine serum, and 100 µg/mL of penicillin and streptomycin. On the day of implantation, culture medium was replaced with fresh medium. Four hours later, media was removed and cells were collected as described above. Cells were re-suspended in cold (4° C.) PBS and same volume of matrigel was added to give a final concentration of 5×10^7 cells/mL for TMD-8 cells. Re-suspended cells were placed on ice prior to inoculation. The right flank region of each mouse was cleaned with 75% ethanol prior to cell inoculation. Animals were then injected subcutaneously with 1×10^7 TMD-8 cells in 200 µl of cell suspension in the right front flank via a 26-gauge needle.
On day 7 after inoculation, animals were randomly divided into 4 groups with 10 mice per group. […] Treatments were administered in a volume of 10 mL/kg body weight, assessed immediately before dosing and the volume dosed was adjusted accordingly. Compound 1 was administered by oral gavage (p.o.) twice daily (BID) and obinutuzumab was administered by intraperitoneal (i.p.) injection once every week (QW). After implantation, primary tumor volume was measured in two dimensions using a calliper.
Mice were euthanized using carbon dioxide when their tumor volume reached 2,500 mm^3 after twice measurements, the tumor was ulcerated, or body weight loss exceeded 20%.
(§2) Tumor volume was calculated using the formula: V = 0.5 × (a × b^2) where a and b are the long and short diameters of the tumor, respectively. Tumor growth inhibition (TGI) was calculated using the following formula:
(§3) • treated t = treated tumor volume at time t • placebo t = placebo tumor volume at time t
On the technique in general: Xenograft models place foreign cells or tissue in a host animal.

Test [3] has as its system A431 epidermoid carcinoma allogeneic model (A431 cells and human PBMCs). The test can be described thus: Human A431 epidermoid carcinoma allogeneic model (Compound 1 and pembrolizumab). In kind it is in vivo, NOD/SCID mice. Particulars: Compound 1 15 mg/kg p.o. BID; pembrolizumab 10 mg/kg i.p. QW. As for the experimental part:
On the day of implantation, human peripheral blood mononuclear cells (PBMCs) were isolated from 150 mL blood donated by a healthy volunteer. Briefly, peripheral blood was collected into vacuum blood collection tubes containing sodium heparin. PBMCs were separated by density gradient centrifugation using Histopaque-1077 and washed one time by Dulbecco’s Phosphate Buffered Saline (DPBS). The cell pellet was suspended with DPBS at appropriate volume to give a final concentration of 5× 10^7 cells/mL and placed on ice prior to inoculation.
(§4) A431 cells were cultured in DMEM complete medium supplemented with 10% (v/v) fetal bovine serum, and 100 µg/mL of penicillin and streptomycin. On the day of implantation, culture medium was replaced with fresh medium. […]
(§5) Starting from day 0 after cell inoculation, animals were randomly divided into four groups with 10-11 mice per group. […] Treatments were administered in a volume of 10 mL/kg body weight, assessed immediately before dosing and the volume dosed was adjusted accordingly. […] After implantation, primary tumor volume was measured in two dimensions using a calliper.
(§6) Individual body weight was recorded twice weekly, with mice being monitored daily for clinical signs of toxicity for the duration of the study. […]
(§7) Tumor volume was calculated using the formula: V = 0.5 × (a × b^2) where a and b are the long and short diameters of the tumor, respectively.

The test system is the same in test [4]. The test can be described thus: Human A431 epidermoid carcinoma allogeneic model (Compound 1 and Mab 1). Format: in vivo, NOD/SCID mice. The note with it: Compound 1 15 mg/kg p.o. BID; Mab 1 10 mg/kg i.p. QW. As to the method: On the day of implantation, human peripheral blood mononuclear cells (PBMCs) were isolated from 150 mL blood donated by a healthy volunteer. Briefly, peripheral blood was collected into vacuum blood collection tubes containing sodium heparin. PBMCs were separated by density gradient centrifugation using Histopaque-1077 and washed one time by Dulbecco’s Phosphate Buffered Saline (DPBS). The cell pellet was suspended with DPBS at appropriate volume to give a final concentration of 1×10^8 cells/mL and placed on ice prior to inoculation.
as §4, §5, §6, §7

Test [5] has as its system REC-1/NK92MI MCL xenograft. The test can be described thus: Human REC-1/NK92MI mantle cell lymphoma xenograft model. Format: in vivo, NOD/SCID mice. The note with it: Compound 1 2.5 mg/kg p.o. BID, obinutuzumab 2 mg/kg i.p. QW. As to the method: REC-1 cells were cultured in RPMI1640 complete medium supplemented with 10% (v/v) fetal bovine serum, and 100 µg/mL of penicillin and streptomycin. NK92MI/CD16V cell line, overexpressing CD16 and FcRγ chain, was established from parental cell line NK92MI. The cells were maintained in MEM alpha supplemented with 0.2 mM inositol; 0.1 mM 2-mercaptoethanol; 0.02 mM folic acid; 1×NEAA; adjust to a final concentration of 20% (v/v) fetal bovine serum and 100 µg/mL of penicillin and streptomycin. […]
On day 3 after inoculation, animals were randomly divided into four groups with 12 mice per group. […] Treatments were administered in a volume of 10 mL/kg body weight, assessed immediately before dosing and the volume dosed was adjusted accordingly. […] After implantation, primary tumor volume was measured in two dimensions using a calliper.
as §6
Tumor volume was calculated using the formula: V = 0.5 × (a × b^2) where a and b are the long and short diameters of the tumor, respectively. Tumor growth inhibition (TGI) was calculated using the following formula: […]

Test [6] deals with REC-1 MCL xenograft. The test can be described thus: Human REC-1 MCL xenograft model. Format: in vivo, mice. Particulars: for tumor growth / anti-tumor effect (in words): Compound 1 7.5 mg/kg BID, Ibrutinib 25 mg/kg BID, rituximab 200 µg/dose i.p. Q4D; for Tumor growth inhibition (TGI): Compound 1 7.5 mg/kg p.o. BID, Ibrutinib 25 mg/kg p.o. BID. As for the experimental part: as §1, with “REC-1” for “TMD-8 DLBCL”, “REC-1.” for “TMD-8 cells.”, “REC-1” for “TMD-8”
On day 9 after inoculation, animals were randomly divided into 6 groups with 7 mice per group. […] After implantation, primary tumor volume was measured in two dimensions using a calliper.
Individual body weight was recorded twice weekly, with mice being monitored daily for clinical signs of toxicity for the duration of the study. Mice were euthanized using carbon dioxide when their tumor volume reached 2,500 mm^3 after twice measurements, the tumor was ulcerated, or body weight loss exceeded 20%.
as §2, §3

Where [7] appears, read: number of mice, 10 mice per group, Compound 1 7.5 mg/kg, obinutuzumab 10 mg/kg.

For `C=CC(=O)N1CCC([C@@H]2CCNc3c(C(N)=O)c(-c4ccc(Oc5ccccc5)cc4)nn32)CC1` [Compound 1, (S)-7-(1-acryloylpiperidin-4-yl)-2-(4-phenoxyphenyl)-4,5,6,7-tetra-hydropyrazolo[1,5-a]pyrimidine-3-carboxamide], in test [1], the “inhibition of IFN-γ secretion (in words)” value was “much less effective”. Further, the “Tumor growth inhibition (TGI)” value in test [2] was 81%; in test [5] (day 23) it was 72%; in test [6] it was 85%. Also, in test [2] (setting [7]), the “Objective responses: CR” value worked out at 1. The “Objective responses: total (CR+PR)” value in test [2] (setting [7]) is 5. Besides, the “anti-tumor effect on tumor volume (in words)” value is “Neither Compound 1 nor pembrolizumab showed anti-tumor effect” in test [3] and “no anti-tumor effect” in test [4]. In addition, in test [6], the “tumor growth / anti-tumor effect (in words)” value is “tumor growth was retarded”.
`C=CC(=O)N1CCC[C@@H](n2nc(-c3ccc(Oc4ccccc4)cc3)c3c(N)ncnc32)C1` [Ibrutinib, reference compound]: in test [6], the “Tumor growth inhibition (TGI)” value turned out to be 83%.
“obinutuzumab: anti-CD20 mAb (Gazyva®) [reference compound]”: in test [2], the “Tumor growth inhibition (TGI)” value amounted to 61%. In test [2] (setting [7]), the “Objective responses: PR” value came out at 2 and the “Objective responses: total (CR+PR)” value turned out to be 2. Besides, the “anti-tumor effect (in words)” value in test [5] is recorded as “no anti-tumor effect”.
Consider “pembrolizumab: humanized monoclonal IgG4 antibody against PD-1 [reference compound]”, for which the “anti-tumor effect on tumor volume (in words)” value in test [3] is “Neither Compound 1 nor pembrolizumab showed anti-tumor effect”.
On to “rituximab: anti-CD20 mAb [reference compound]”, for which the “tumor growth / anti-tumor effect (in words)” value in test [6] is listed as “tumor growth was retarded”.
